Measured values: the supplement of paper PMC10307832

Columns and labels:
Test in all cases: relative viability (nuclei count vs DMSO), 5 days (fraction); higher = more cells survive
[1] = compound: CC1=CC=C(C=C1)C(=O)CN2C3=C(CCCC3)SC2=N [Pifithrin_alpha] + CC1(C)CCC(c2ccc(Cl)cc2)=C(CN2CCN(c3ccc(C(=O)NS(=O)(=O)c4ccc(N[C@H](CCN5CCOCC5)CSc5ccccc5)c(S(=O)(=O)C(F)(F)F)c4)cc3)CC2)C1 [Navitoclax] (partner 0.5 µM)
In short: (§1)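 One day after seeding in 1536-well plates, lung cancer cell lines were dosed by pin tool. Dosing was either single-drug or a fixed anchor-drug dose plus five library-drug doses (not always all listed) in √10 steps. After 5 days, nuclei were stained in one fix-and-stain step and counted on 4× images, and relative viability is the nuclei count of treated wells over that of vehicle wells, given as the median of duplicate plates.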

[2] = compound: Nc1nc(Nc2ccc3c(c2)CC[C@@H](N2CCCC2)CC3)nn1-c1cc2c(nn1)-c1ccccc1CCC2 [Bemcentinib] + Cc1nc(NC(=O)N2CCC[C@H]2C(N)=O)sc1-c1ccnc(C(C)(C)C(F)(F)F)c1 [Alpelisib] (partner 2 µM)
In short: as §1

[3] = compound: Nc1nc(Nc2ccc3c(c2)CC[C@@H](N2CCCC2)CC3)nn1-c1cc2c(nn1)-c1ccccc1CCC2 [Bemcentinib] + CC1(C)CCC(c2ccc(Cl)cc2)=C(CN2CCN(c3ccc(C(=O)NS(=O)(=O)c4ccc(N[C@H](CCN5CCOCC5)CSc5ccccc5)c(S(=O)(=O)C(F)(F)F)c4)cc3)CC2)C1 [Navitoclax] (partner 0.5 µM)
In short: as §1

[4] = compound: Nc1nc(Nc2ccc3c(c2)CC[C@@H](N2CCCC2)CC3)nn1-c1cc2c(nn1)-c1ccccc1CCC2 [Bemcentinib] + Cc1cc(Nc2cc(N3CCN(C)CC3)nc(Sc3ccc(NC(=O)C4CC4)cc3)n2)n[nH]1 [Tozasertib] (partner 0.1 µM)
In short: as §1

Row | Cell Line | relative viability ([1]; first compound 1 µM) | relative viability ([1]; first compound 3.162 µM) | relative viability ([1]; first compound 10 µM) | relative viability ([1]; first compound 100 µM) | relative viability ([2]; first compound 0.04 µM) | relative viability ([2]; first compound 0.1265 µM) | relative viability ([2]; first compound 0.4 µM) | relative viability ([2]; first compound 1.265 µM) | relative viability ([2]; first compound 4 µM) | relative viability ([3]; first compound 0.04 µM) | relative viability ([3]; first compound 0.1265 µM) | relative viability ([3]; first compound 0.4 µM) | relative viability ([3]; first compound 1.265 µM) | relative viability ([3]; first compound 4 µM) | relative viability ([4]; first compound 0.04 µM) | relative viability ([4]; first compound 0.1265 µM) | relative viability ([4]; first compound 0.4 µM) | relative viability ([4]; first compound 1.265 µM) | relative viability ([4]; first compound 4 µM) | relative viability ([1]; first compound 31.62 µM)
1 | LU99A | 0.823 | 0.782 | 0.874 | 0.892 | 0.453 | 0.584 | 0.591 | 0.542 | 0.569 | 0.766 | 0.93 | 0.697 | 0.755 | 0.821 | 0.263 | 0.31 | 0.248 | 0.264 | 0.258 | 
2 | LXF-289 | 0.984 | 1.01 | 0.96 | 0.901 | 1.09 | 1.05 | 1.02 | 1.06 | 1.05 | 0.955 | 0.914 | 0.979 | 1 | 0.961 | 0.179 | 0.2 | 0.185 | 0.185 | 0.205 | 0.793
3 | NCI-H23 | 0.797 | 0.857 | 0.889 | 0.729 | 0.725 | 0.745 | 0.814 | 0.758 | 0.806 | 0.779 | 0.869 | 1.08 | 0.813 | 0.778 | 0.389 | 0.632 | 0.327 | 0.407 | 0.366 | 0.736
4 | NCI-H322M | 1.17 | 1.35 | 1.27 | 1.33 | 0.897 | 0.864 | 0.855 | 0.85 | 0.937 | 1.11 | 1.26 | 1.23 | 1.35 | 1.37 | 0.5 | 0.582 | 0.483 | 0.527 | 0.525 | 1.22
5 | NCI-H441 | 0.652 | 0.813 | 0.587 | 0.831 | 0.86 | 0.74 | 0.756 | 0.467 | 0.976 | 0.504 | 0.752 | 0.637 | 0.59 | 0.598 | 0.733 | 0.847 | 0.781 | 0.649 | 0.611 | 0.481
6 | NCI-H460 | 1.41 | 0.989 | 0.989 | 0.933 | 0.595 | 0.556 | 0.487 | 0.602 | 0.584 | 0.994 | 1.47 | 1.45 | 1.23 | 1.34 | 0.432 | 0.619 | 0.525 | 0.364 | 0.524 | 
7 | NCI-H520 | 1.11 | 1.32 | 1.16 | 1.12 | 0.917 | 1.11 | 1.2 | 1.01 | 0.919 | 1.19 | 1.19 | 1.42 | 1.11 | 1.07 | 0.526 | 0.379 | 0.411 | 0.452 | 0.484 | 0.94
8 | NCI-H596 | 0.844 | 0.891 | 0.9 | 1.13 | 0.574 | 0.612 | 0.524 | 0.537 | 0.392 | 0.955 | 0.994 | 1.11 | 1.04 | 1.14 | 0.87 | 1.05 | 1.14 | 0.94 | 0.799 | 0.88
9 | NCI-H647 | 0.814 | 1.07 | 0.86 | 1.03 | 1.1 | 1.22 | 1.25 | 1.13 | 1.08 | 1.14 | 1.36 | 1.15 | 1.03 | 1.09 | 0.304 | 0.286 | 0.28 | 0.317 | 0.246 | 
10 | NCI-H727 | 0.356 | 0.412 | 0.307 | 0.271 | 0.528 | 0.576 | 0.492 | 0.491 | 0.621 | 0.348 | 0.389 | 0.435 | 0.382 | 0.522 | 0.537 | 0.759 | 0.606 | 0.629 | 0.58 | 0.244
11 | NCI-H838 | 1.14 | 1.06 | 1 | 0.882 | 0.961 | 1.19 | 1.08 | 1.01 | 1.04 | 1.15 | 1.28 | 1.36 | 1.13 | 1.36 | 0.281 | 0.268 | 0.264 | 0.262 | 0.291 | 0.833
12 | NCI-H1355 | 0.812 | 0.675 | 0.692 | 0.563 | 0.905 | 0.915 | 0.778 | 0.902 | 0.965 | 0.947 | 0.943 | 1.08 | 0.941 | 0.976 | 0.529 | 0.569 | 0.562 | 0.61 | 0.538 | 0.556
13 | NCI-H1395 |  | 1.15 | 1.34 | 1.31 | 1 | 1.26 | 1.12 | 1.03 | 1.29 | 1.11 | 1.35 | 1.05 | 1.23 | 1.19 | 0.759 | 0.763 | 0.782 | 0.739 | 0.753 | 0.604
14 | NCI-H1437 | 1.25 | 1.16 | 1.13 | 0.775 | 0.961 | 1.03 | 1.16 | 1.01 | 1.01 | 1.09 | 1.16 | 1.23 | 1.13 | 1.15 | 0.399 | 0.435 | 0.436 | 0.421 | 0.401 | 0.784
15 | NCI-H1651 | 1.05 | 1.06 | 0.924 | 0.865 | 0.935 | 1.01 | 1.12 | 0.964 | 1.02 | 0.966 | 1.16 | 1.35 | 1.14 | 1.24 | 0.671 | 0.835 | 0.87 | 0.77 | 0.635 | 0.604
16 | NCI-H1666 | 0.84 | 0.61 | 0.432 | 0.354 | 0.869 | 1.05 | 0.941 | 1.02 | 1.02 | 0.864 | 0.942 | 1.01 | 0.866 | 1.03 | 0.605 | 0.619 | 0.621 | 0.594 | 0.595 | 0.635
17 | NCI-H1734 | 0.892 | 0.95 | 0.796 | 0.734 | 1.04 | 0.74 | 0.718 | 0.372 | 0.514 | 0.872 | 0.986 | 0.94 | 0.886 | 0.875 | 0.245 | 0.28 | 0.25 | 0.256 | 0.27 | 0.745
18 | NCI-H1755 | 0.935 | 0.973 | 0.888 | 0.966 | 0.98 | 1.03 | 1.02 | 1.06 | 1.04 | 1.05 | 1.04 | 1.03 | 1.11 | 1.08 | 0.64 | 0.742 | 0.626 | 0.607 | 0.613 | 0.628
19 | NCI-H1793 | 0.395 | 0.282 | 0.382 | 0.339 | 0.684 | 0.927 | 0.691 | 0.742 | 0.66 | 0.438 | 0.44 | 0.425 | 0.545 | 0.427 | 0.313 | 0.371 | 0.314 |  | 0.371 | 0.339
20 | NCI-H1915 | 0.791 | 0.793 | 0.788 | 0.801 | 1.15 | 1.13 | 1.1 | 1.07 | 1.08 | 0.805 | 0.81 | 0.817 | 0.788 | 0.788 | 0.511 | 0.462 | 0.44 | 0.468 | 0.443 | 
21 | NCI-H1944 | 1.11 | 1.04 | 0.946 | 1.02 | 0.825 | 0.821 | 0.898 | 0.871 | 0.846 | 0.964 | 1.02 | 1.04 | 0.977 | 1.08 | 0.258 | 0.261 | 0.255 | 0.251 | 0.242 | 
22 | NCI-H1975 | 0.918 | 0.848 | 0.621 | 0.686 | 0.645 | 0.676 | 0.715 | 0.605 | 0.632 | 1.03 | 1.23 | 1.12 | 1.05 | 1.2 | 0.689 | 0.881 | 1.02 | 0.672 | 0.818 | 0.616
23 | NCI-H1993 |  | 0.79 | 0.594 | 0.639 | 0.74 | 0.74 | 0.694 | 0.712 | 0.687 | 0.897 | 0.911 | 1.02 | 0.994 | 1.08 | 0.548 | 0.551 | 0.592 | 0.56 | 0.588 | 0.718
24 | NCI-H2009 | 1.24 | 1.1 | 1.05 | 0.957 | 1.23 | 1.2 | 1.24 | 1.2 | 1.16 | 1.12 | 1.16 | 1.22 | 1.14 | 1.21 | 0.741 | 0.785 | 0.765 | 0.569 | 0.677 | 0.784
25 | NCI-H2023 | 0.914 | 0.968 | 0.8 | 0.822 | 0.678 | 0.602 | 0.72 | 0.528 | 0.587 | 0.963 | 1.12 | 1.11 | 1.12 | 0.996 | 0.484 | 0.438 | 0.433 | 0.295 | 0.273 | 0.676
26 | NCI-H2085 | 1.06 | 1.22 | 1.08 | 1.04 | 0.905 | 1.08 | 1.02 | 0.983 | 0.967 | 1.07 | 1.07 | 1.1 | 1.18 | 1.1 | 0.788 | 0.974 | 0.69 | 0.797 | 0.757 | 0.876
27 | NCI-H2087 | 0.948 | 1.04 | 0.998 | 0.715 | 0.886 | 1.43 | 1.09 | 0.949 | 1.13 | 1.16 | 1.03 | 1.15 | 0.992 | 1.02 | 0.226 | 0.251 | 0.276 | 0.28 | 0.252 | 0.742
